The values that follow come from patent US8673554B2, “Multiplex cell signalling assays” (Ge Healthcare UK Limited, priority 2008, dated 2014).

What all share (type): cell-based, human
Assay [1] concerns EGFP-NFATc1 transfected U2OS cells. Nature of the assay: EGFP-NFATc1 translocation assay, Nuclear Trafficking Analysis module. As to conditions: 60 minutes incubation; FIG. 11 / FIG. 14. The source says:
The present patent specification describes a method for monitoring the NFATC1 signalling pathway with a cell-secreted, cell-associated analyte. The assay method is based on the intracellular translocation of an EGFP-NFATc1 fusion protein in stably transfected mammalian cells. NFATc1 is a transcription factor involved in T-cell signalling and tissue development. […] Following activation with agonists these translocate to the nucleus.
The NFAT assay is optimised for image acquisition and analysis on the IN Cell Analysis System (GE Healthcare) using the Nuclear Trafficking-Analysis Module, although the assay can be imaged on other systems. The Nuclear Trafficking-Analysis Module measures the degree of EGFP-NFAT translocation from the cytoplasm to the nucleus on the addition of agonists.
• 1. Incubate the microplate at 37° C., 5% CO2 and 95% humidity. • 2. The day before commencing the assay, seed at 1×10^4 cells per well in 200 μl of growth medium. Incubate for 24 hours at 37° C. If one of the wells on the cell plate is used for flat field correction, it should not contain cells. • 3. […]
• 1. […] Cells were contacted with test agent for a further 3-18 hours and cell associated TNF, IL-8 or PDGF was measured post stimulation with test agent. • 8. […] The results were analysed using an object intensity algorithm (IN Cell Investigator software). […]

For assay [2], the system named is EGFP-NFAT1c transfected U2OS cells. Nature of the assay: Cell-associated PDGF immunofluorescence combined with EGFP-NFAT1c translocation. Particulars: further 3-18 hours contact; FIG. 12. Here is the method:
• 1. The day before commencing the assay, seed EGFP-NFATc1 transfected U2OS cells at 1×10^4 cellsper well in 200 μl of growth medium. • 2. On the day of the assay, prepare the test agent (ionomycin, ionomycin+PMA, A23187). These samples are typically prepared in assay medium. • 3. Decant the growth medium from the cell plate, removing all excess liquid and add 200 μl. Using the cell culture medium, wash the cells. Decant the wash. • 4. Add […] assay medium containing test agent. Incubate for 60 minutes. • 5. The total volume is 200 μl. After the suitable incubation period, image the plate on the IN Cell Analyzer 1000 using appropriate filters and dichroic mirror. • 6. Carry out the data analysis using the Nuclear Trafficking Analysis module. • 7. Cells were contacted with test agent for a further 3-18 hours and cell associated TNF, IL-8 or PDGF was measured post stimulation with test agent. • 8. After stimulation with the test agent, the supernatant was decanted and the cells were washed ×3 with PBS. […] The results were analysed using an object intensity algorithm (IN Cell Investigator software). […]

Assay [3] has as its system U2OS cells. Nature of the assay: Cell-associated IL-6, chemiluminescent anti-IL-6-HRP assay on LEADSEEKER imaging system, same cells after the calcium transient. Particulars: after stimulation (A23187 4 hours, histamine overnight); FIG. 3 / FIG. 5.
Description: Cells were contacted with the test agent (calcium ionophore A23187) for 4 hours and cell-associated IL-6 measured post cell-stimulation with the test agent. After stimulation, the cell supernatant was decanted, the cells were washed thoroughly X3 with PBS, before incubating with the anti-IL-6 antibody. The cells were washed ×3 with PBS before addition of the chemiluminescent substrate. Results from the calcium transient were obtained prior to the IL-6 results using the same population of cells. The results (FIG. 3) were obtained using a […] ™ Multimodality Imaging System, exposing for 20 seconds, using the chemiluminescent substrate and the luminescent signal reporter (anti-IL-6 labelled with the enzyme horseradish peroxidise).
The results were obtained on the […] ™ Multimodality Imaging System, exposing for 20 seconds, using the chemiluminescent substrate and the luminescent signal reporter (anti-IL-6 labelled with the enzyme horseradish peroxidise).
iv) 5 mg of calcium ionophore A23187 was dissolved in 1 ml of DMSO. The ionophore was subsequently diluted in complete maintenance buffer to give final concentration of ionophore over the range of 1.56-100 μM. Fluo-4 dye was prepared by adding 456 μl DMSO to a 50 μg vial, and the vial was mixed well to provide a Fluo-4 stock concentration of 100 μM. […]
Assay [4] has as its system U2OS cells. Nature of the assay: Calcium transient (Fluo-4 fluorescence) in stimulated U2OS cells, IN Cell Analyzer 1000. Particulars: for cytosolic intracellular calcium (emitted fluorescence of Fluo-4): test agent 1.56-100 μM, over eight minutes, peak and decline, dose dependent, FIG. 1 / FIG. 4.
Description: i) U2OS cells were seeded into 96-well Greiner cluster plates at 6000 cell/well in 100 μl of complete McKoys media and incubated overnight at 37° C., 5% CO2.
ii) Loading buffer was prepared with 42.8 ml of calcium flux buffer with 6.65 ml of 7.5% albumin This buffer was stored at 37° C.
iii) 120 ml of maintenance buffer was prepared with 118.16 ml calcium flux buffer and 1840 μl of 7.5% albumin
The test system of assay [5] is U2OS cells. Put plainly: Cell-associated IL-6 immunocytochemistry (Cy5 second antibody) combined with intracellular calcium, IN Cell Analyzer 1000. As to conditions: 4 hours contact; Example 4, FIG. 8. As to the method: 4. Combination Assay of Intracellular Calcium and Human Interleukin-6 from Calcium Ionophore A23187-Stimulated U2OS Cells on IN Cell Analyzer 1000 4.1 Materials Anti-IL-6 (R&D Systems) Goat anti-human IgG CY™ 5 linked (GE Healthcare) Calcium ionophore A23187 (Sigma) U2OS cells (European Collection of Cell Cultures, Porton Down, UK) 4.2 Method and Results i) U2OS cells were seeded into 96-well tissue culture plates at 6000 cell/well in 100 μl of complete McKoys media and incubated overnight at 37° C., 5% CO2. ii) Cells were stimulated with A23187 for 8 minutes before measurement of a calcium transient on an IN Cell Analyzer 1000 as described in Example 1. […] The results from this assay were measured on an IN Cell Analyzer 1000 using a 10× objective, 505 light pass dichroic 475/535 filter set 200 ms exposure. […] Cells were contacted with the test agent (calcium ionophore A23187) for 4 hours and cell-associated IL-6 measured post cell-stimulation with test agent. After stimulation with the ionophore, the supernatant was decanted and the cells were washed thoroughly X3 with PBS. […] The results were analysed using an object intensity algorithm (IN Cell Investigator software). […]

Regarding `C[C@H](CCC(=O)O)C[C@H](C)C[C@H](C)C(=O)/C=C(\O)[C@H](C)C[C@H](C)C/C=C/[C@@H](C)[C@@H](O)[C@@H](C)[C@@H](O)C[C@@H]1CC[C@@](C)([C@H]2CC[C@@](C)([C@@H](C)O)O2)O1` [ionomycin, Ionomycin], the EGFP-NFAT1c translocation entry in assay [1] is listed as “EGFP-NFAT1c cell response”. Further, the “cell-associated PDGF release” value in assay [2] is reported as “PDGF release”.

Turning to `NCCc1c[nH]cn1` [histamine, Histamine], the “cell-associated IL-6” value with U2OS cells [3] is recorded as “increase in cell-associated IL-6”. Also, the “cytosolic intracellular calcium (emitted fluorescence of Fluo-4)” value with U2OS cells [4] is reported as “increase in cytosolic intracellular calcium”.

For `CNc1ccc2oc(C[C@H]3O[C@@]4(CC[C@H]3C)O[C@H]([C@H](C)C(=O)c3ccc[nH]3)[C@H](C)C[C@H]4C)nc2c1C(=O)O` [calcium ionophore A23187, Calcium ionophore A23187], in the assay with U2OS cells [5], the “cell-associated IL-6 with increasing concentration of the ionophore” value is “dose-dependent rise”. Further, the “cell-associated IL-6” value with U2OS cells [3] is on record as “increase in cell-associated IL-6”. The EGFP-NFAT1c translocation result in assay [1] is recorded as “EGFP-NFAT1c cell response”. The “intracellular calcium compared with the unstimulated (zero ionophore) control” value with U2OS cells [4] (1.56 μM ionophore, 8 minutes stimulation, FIG. 7) is reported as “increase in intracellular calcium”. Besides, the “intracellular calcium with increasing concentration of the ionophore” value in the assay on U2OS cells [4] (Example 4, FIG. 8) is “dose-dependent rise”. Also, in the assay on U2OS cells [4], the “cytosolic intracellular calcium (emitted fluorescence of Fluo-4)” value is “increase in cytosolic intracellular calcium”.
